{"source": "patent US20110236503A1", "about": "“Topical Skincare Composition” (COSMALABS INTERNATIONAL, LLC, priority 2010, published 2011)", "origin": "cited, not measured here", "details": "topical composition having 5% benzoyl peroxide vs erythromycin and clindamycin formulations"}
{"compound": "O=C(OOC(=O)c1ccccc1)c1ccccc1", "note": "[benzoyl peroxide, Benzoyl peroxide]", "values": [{"measurement": "effectiveness for acne compared with other topical antimicrobials", "result": "at least as effective for acne as erythromycin and clindamycin formulations"}]}
